Active and inactive are the calls of the source. No cut-off for these calls is given here.
What was measured:
MDA-MB-435 [1] = assay: Antiproliferative activity against human MDA-MB-435 cells assessed as growth inhibition at 10 uM measured after 48 hrs by NCI protocol based SRB assay relative to control; assay type: functional; conditions: read-out: GI
COLO 205 = assay: Antiproliferative activity against human COLO 205 cells assessed as growth inhibition at 10 uM measured after 48 hrs by NCI protocol based SRB assay relative to control; assay type: functional; conditions: read-out: GI
MDA-MB-468 = assay: Antiproliferative activity against human MDA-MB-468 cells assessed as growth inhibition at 10 uM measured after 48 hrs by NCI protocol based SRB assay relative to control; assay type: functional; conditions: read-out: GI
NCI-H23 = assay: Antiproliferative activity against human NCI-H23 cells assessed as growth inhibition at 10 uM measured after 48 hrs by NCI protocol based SRB assay relative to control; assay type: functional; conditions: read-out: GI
Hs-578T = assay: Antiproliferative activity against human Hs-578T cells assessed as growth inhibition at 10 uM measured after 48 hrs by NCI protocol based SRB assay relative to control; assay type: functional; conditions: read-out: GI
EKVX = assay: Antiproliferative activity against human EKVX cells assessed as growth inhibition at 10 uM measured after 48 hrs by NCI protocol based SRB assay relative to control; assay type: functional; conditions: read-out: GI
SN12C [2] = assay: Antiproliferative activity against human SN12C cells assessed as growth inhibition at 10 uM measured after 48 hrs by NCI protocol based SRB assay relative to control; assay type: functional; conditions: read-out: GI
CAKI-1 = assay: Antiproliferative activity against human CAKI-1 cells assessed as growth inhibition at 10 uM measured after 48 hrs by NCI protocol based SRB assay relative to control; assay type: functional; conditions: read-out: GI
TK-10 = assay: Antiproliferative activity against human TK-10 cells assessed as growth inhibition at 10 uM measured after 48 hrs by NCI protocol based SRB assay relative to control; assay type: functional; conditions: read-out: GI
NCI-H322M = assay: Antiproliferative activity against human NCI-H322M cells assessed as growth inhibition at 10 uM measured after 48 hrs by NCI protocol based SRB assay relative to control; assay type: functional; conditions: read-out: GI
HCT-116 = assay: Antiproliferative activity against human HCT-116 cells assessed as growth inhibition at 10 uM measured after 48 hrs by NCI protocol based SRB assay relative to control; assay type: functional; conditions: read-out: GI
M14 = assay: Antiproliferative activity against human M14 cells assessed as growth inhibition at 10 uM measured after 48 hrs by NCI protocol based SRB assay relative to control; assay type: functional; conditions: read-out: GI
NCI-H522 = assay: Antiproliferative activity against human NCI-H522 cells assessed as growth inhibition at 10 uM measured after 48 hrs by NCI protocol based SRB assay relative to control; assay type: functional; conditions: read-out: GI
KM12 = assay: Antiproliferative activity against human KM12 cells assessed as growth inhibition at 10 uM measured after 48 hrs by NCI protocol based SRB assay relative to control; assay type: functional; conditions: read-out: GI
SK-MEL-28 = assay: Antiproliferative activity against human SK-MEL-28 cells assessed as growth inhibition at 10 uM measured after 48 hrs by NCI protocol based SRB assay relative to control; assay type: functional; conditions: read-out: GI
LOX IMVI = assay: Antiproliferative activity against human LOX IMVI cells assessed as growth inhibition at 10 uM measured after 48 hrs by NCI protocol based SRB assay relative to control; assay type: functional; conditions: read-out: GI
A549 = assay: Antiproliferative activity against human A549 cells assessed as growth inhibition at 10 uM measured after 48 hrs by NCI protocol based SRB assay relative to control; assay type: functional; conditions: read-out: GI
HCC 2998 [3] = assay: Antiproliferative activity against human HCC 2998 cells assessed as growth inhibition measured after 48 hrs by NCI protocol based SRB assay; assay type: functional
SN12C [4] = assay: Cytostatic activity in human SN12C cells assessed as tumor growth inhibition measured after 48 hrs by NCI protocol based SRB assay; assay type: functional
HL-60(TB) = assay: Cytostatic activity in human HL-60(TB) cells assessed as tumor growth inhibition measured after 48 hrs by NCI protocol based SRB assay; assay type: functional
SK-MEL-2 = assay: Antiproliferative activity against human SK-MEL-2 cells assessed as growth inhibition at 10 uM measured after 48 hrs by NCI protocol based SRB assay relative to control; assay type: functional; conditions: read-out: GI
MOLT-4 [5] = assay: Cytostatic activity in human MOLT-4 cells assessed as tumor growth inhibition measured after 48 hrs by NCI protocol based SRB assay; assay type: functional
HT-29 = assay: Antiproliferative activity against human HT-29 cells assessed as growth inhibition at 10 uM measured after 48 hrs by NCI protocol based SRB assay relative to control; assay type: functional; conditions: read-out: GI
SF-268 = assay: Cytostatic activity in human SF-268 cells assessed as tumor growth inhibition measured after 48 hrs by NCI protocol based SRB assay; assay type: functional
OVCAR-5 = assay: Antiproliferative activity against human OVCAR-5 cells assessed as growth inhibition at 10 uM measured after 48 hrs by NCI protocol based SRB assay relative to control; assay type: functional; conditions: read-out: GI
MDA-MB-435 [6] = assay: Antiproliferative activity against human MDA-MB-435 cells assessed as growth inhibition measured after 48 hrs by NCI protocol based SRB assay; assay type: functional
SK-OV-3 [7] = assay: Antiproliferative activity against human SK-OV-3 cells assessed as growth inhibition measured after 48 hrs by NCI protocol based SRB assay; assay type: functional
SK-OV-3 [8] = assay: Antiproliferative activity against human SK-OV-3 cells assessed as growth inhibition at 10 uM measured after 48 hrs by NCI protocol based SRB assay relative to control; assay type: functional; conditions: read-out: GI
A498 = assay: Antiproliferative activity against human A498 cells assessed as growth inhibition at 10 uM measured after 48 hrs by NCI protocol based SRB assay relative to control; assay type: functional; conditions: read-out: GI
PC-3 = assay: Antiproliferative activity against human PC-3 cells assessed as growth inhibition measured after 48 hrs by NCI protocol based SRB assay; assay type: functional
BT-549 = assay: Antiproliferative activity against human BT-549 cells assessed as growth inhibition at 10 uM measured after 48 hrs by NCI protocol based SRB assay relative to control; assay type: functional; conditions: read-out: GI
HCC 2998 [9] = assay: Antiproliferative activity against human HCC 2998 cells assessed as growth inhibition at 10 uM measured after 48 hrs by NCI protocol based SRB assay relative to control; assay type: functional; conditions: read-out: GI
KOPN-8 = assay: Antiproliferative activity against human KOPN-8 cells assessed as reduction in cell viability incubated for 72 hrs by resazurin dye based assay; assay type: functional; conditions: KOPN-8, 72 h
RS4-11 [10] = assay: Antiproliferative activity against human RS4-11 cells assessed as reduction in cell viability incubated for 72 hrs by resazurin dye based assay; assay type: functional; conditions: RS4-11, 72 h
ML-2 = assay: Antiproliferative activity against human ML-2 cells assessed as reduction in cell viability incubated for 72 hrs by resazurin dye based assay; assay type: functional; conditions: ML-2, 72 h
MOLT-4 [11] = assay: Antiproliferative activity against human MOLT-4 cells assessed as growth inhibition at 10 uM measured after 48 hrs by NCI protocol based SRB assay relative to control; assay type: functional; conditions: read-out: GI
RS4-11 [12] = assay: Downregulation of HOXA9 protein expression in human RS4-11 cells at 5 to 20 uM measured after 24 hrs by Western blot analysis; assay type: functional, cell-based; conditions: dose 5-20 µM
[13] = read-out: LC50 (the source's name)

SMILES	inhibition of growth at 10 µM (MDA-MB-435 [1])	inhibition of growth at 10 µM (COLO 205)	inhibition of growth at 10 µM (MDA-MB-468)	inhibition of growth at 10 µM (NCI-H23)	inhibition of growth at 10 µM (Hs-578T)	inhibition of growth at 10 µM (EKVX)	inhibition of growth at 10 µM (SN12C [2])	inhibition of growth at 10 µM (CAKI-1)	inhibition of growth at 10 µM (TK-10)	inhibition of growth at 10 µM (NCI-H322M)	inhibition of growth at 10 µM (HCT-116)	inhibition of growth at 10 µM (M14)	inhibition of growth at 10 µM (NCI-H522)	inhibition of growth at 10 µM (KM12)	inhibition of growth at 10 µM (SK-MEL-28)	inhibition of growth at 10 µM (LOX IMVI)	inhibition of growth at 10 µM (A549)	inhibition of growth at 10 µM (SK-MEL-2)	inhibition of growth at 10 µM (A498)	inhibition of growth at 10 µM (BT-549)	further results
COc1cc(-c2c(C#N)c(-c3ccccc3)nc3c2c(-c2ccccc2)nn3-c2ccccc2)ccc1O	32%	23%	38%	26%	32%	18%	32%	37%	42%	17%	45%	19%	47%	35%	19%	26%	48%	–	–	–	–
N#Cc1c(-c2ccccc2)nc2c(c(-c3ccccc3)nn2-c2ccccc2)c1-c1ccc(O)cc1	49%	59%	62%	56%	85%	55%	39%	48%	79%	34%	66%	44%	99%	53%	51%	148%	59%	28%	101%	41%	GI50 (HCC 2998 [3]): 1.84 µM; CC50 (HCC 2998 [3]; [13]): 6.53 µM; TGI (SN12C [4]): 3.04 µM; TGI (HL-60(TB)): 23.7 µM; TGI (MOLT-4 [5]): 7.86 µM; inhibition of growth at 10 µM (HT-29): 16%; TGI (SF-268): 9.14 µM; inhibition of growth at 10 µM (OVCAR-5): 19%; GI50 (MDA-MB-435 [6]): 1.86 µM; CC50 (MDA-MB-435 [6]; [13]): 7.39 µM; GI50 (SK-OV-3 [7]): 2.87 µM; CC50 (SK-OV-3 [7]; [13]): 2.98 µM; inhibition of growth at 10 µM (SK-OV-3 [8]): 29%; GI50 (PC-3): 1.82 µM; CC50 (PC-3; [13]): 7.86 µM; inhibition of growth at 10 µM (HCC 2998 [9]): 28%
N#Cc1c(-c2ccco2)nc2c(c(-c3ccccc3)nn2-c2ccccc2)c1-c1ccc(O)cc1	38%	97%	–	–	47%	44%	18%	42%	11%	19%	64%	35%	81%	58%	24%	–	54%	30%	–	36%	inhibition of growth at 10 µM (HT-29): 70%; IC50 (KOPN-8): 10 µM; IC50 (RS4-11 [10]): 15.1 µM; inhibition of growth at 10 µM (SK-OV-3 [8]): 54%; IC50 (ML-2): 12.8 µM; inhibition of growth at 10 µM (MOLT-4 [11]): 91%
Cc1ccc(-c2nc3c(c(-c4ccccc4)nn3-c3ccccc3)c(-c3ccc(O)cc3)c2C#N)cc1	36%	30%	48%	33%	77%	26%	47%	50%	62%	12%	58%	40%	31%	45%	33%	88%	48%	22%	56%	24%	IC50 (KOPN-8): 0.3 µM; IC50 (RS4-11 [10]): 2.7 µM; IC50 (ML-2): 1.4 µM; inhibition of growth at 10 µM (MOLT-4 [11]): 60%; Activity (RS4-11 [12]): Active
N#Cc1c(-c2ccc(Cl)cc2)nc2c(c(-c3ccccc3)nn2-c2ccccc2)c1-c1ccc(O)cc1	52%	48%	69%	52%	74%	33%	118%	60%	83%	30%	86%	62%	45%	59%	44%	74%	59%	26%	21%	38%	inhibition of growth at 10 µM (OVCAR-5): 17%; inhibition of growth at 10 µM (MOLT-4 [11]): 76%; inhibition of growth at 10 µM (HCC 2998 [9]): 16%

Reference: ChEMBL document CHEMBL5131391, “One-pot three-component synthesis of novel pyrazolo[3,4-b]pyridines as potent antileukemic agents” (Eur J Med Chem, 2022)
